Literature values in US20240101584A1, “TARGETED DELIVERY OF 1,2,4,5 TETRAOXANE COMPOUNDS AND THEIR USES” (Westlake University, priority 2021, published 2024).

Tests used:
[1] = system: HL-60 cells; details: cited from earlier work; for IC50: reported data of known compounds
[2] = system: HCT116 cells; details: reported data of known compounds; cited from earlier work
[3] = system: MDA-MB-231 cells; details: reported data of known compounds; cited from earlier work
[4] = system: PMBC; details: reported compound in the literature; cited from earlier work
[5] = system: HEK293 cells; details: reported compound in the literature; read-out: overall IC50, HEK293 cells, reported compound; cited from earlier work
[6] = system: Hela cells; details: reported compound in the literature; read-out: overall IC50, Hela cells, reported compound; cited from earlier work
[7] = system: HepG2 cells; details: reported compound in the literature; read-out: overall IC50, HepG2 cells, reported compound; cited from earlier work

Compound	IC50 [1]	IC50 [2]	IC50 [3]	IC50 [4]	best selectivity index (PMBC versus HL-60) ([1]; reported compound in the literature)	IC50 [5]	IC50 [6]	IC50 [7]
CC(C)(N)CNC(=O)C[C@H]1CC[C@]2(CC1)OO[C@]1(O2)C2CC3CC(C2)CC1C3 [OZ277]	53.8 µM	68.3 µM	35.2 µM	–	–	–	–	–
CN1CCN(C2CCN(C(=O)CC3CCC4(CC3)OOC3(OO4)C4CC5CC(C4)CC3C5)CC2)CC1 (stereo not drawn) [RKA182]	11.6 ± 0.4 µM	–	–	46.6 ± 0.7 µM	4	> 12 µM	> 12 µM	> 12 µM
